Measured values published in US20240246908A1 (ORION CORPORATION, priority 2021, published 2024).

The molecules below were run on YAP-TEAD (assay: TEAD inhibition, Hippo Pathway TEAD Reporter MCF-7 luciferase assay). Conditions: Homo sapiens, MCF7, 24 h, Hippo Pathway TEAD Reporter MCF-7 cells, luciferase activity after 24 h; read-out: IC50 of the test compounds on YAP-TEAD inhibition (Group).
Assay type: cell-based
Procedure: TEAD inhibition was assayed using Hippo Pathway TEAD Reporter—MCF-7 cell line (BPS Bioscience, Catalog #: 60618) which contains firefly luciferase gene under the control of TEAD responsive elements. In the cell line, YAP1 remains in the nucleus inducing constitutive expression of luciferase reporter. Amount of expressed luciferase was detected using ONE-Glo Luciferase Assay System (Promega) and measuring plates with Enspire Multimode Plate Reader (PerkinElmer).
Hippo Pathway TEAD Reporter—MCF-7 cells were plated on white/clear Poly-D-Lysine coated 384 plates (Corning #356660) at the density of 8500 cells/well. Next day test compounds (11 concentrations with 4 replicates) and DMSO control (0.1%) were added to the plate. After 24 h cells were lysed and luciferase activity was measured. The half maximal inhibitory concentration (IC50) of the test compounds on YAP-TEAD inhibition was determined.

Row | IC50 [nM] | Structure (SMILES)
1 | 50 to 300 | COc1ccc(Nc2ccc(C(F)(F)F)cc2)cc1NC(=O)C1CCC(=O)N1C (stereo not drawn) [Compound 74, N-(2-Methoxy-5-((4-(trifluoromethyl)phenyl)amino)phenyl)-1-methyl-5-oxo-pyrrolidine-2-carboxamide]
2 | < 50 | CN1C(=O)CCC1C(=O)Nc1cc(Oc2ccc(C(F)(F)F)cc2)ccc1F (stereo not drawn) [Compound 75, N-(2-Fluoro-5-(4-(trifluoromethyl)phenoxy)phenyl)-1-methyl-5-oxopyrrolidine-2-carboxamide]
3 | < 50 | O=C1CCC(C(=O)Nc2cc(Oc3ccc(C(F)(F)F)cc3)ccc2F)N1 (stereo not drawn) [Compound 76, N-(2-Fluoro-5-(4-(trifluoromethyl)phenoxy)phenyl)-5-oxopyrrolidine-2-carboxamide]
4 | 50 to 300 | COc1ccc(Oc2cc(F)cc(F)c2)cc1NC(=O)C1CCC(=O)N1C(C)=O (stereo not drawn) [Compound 77, 1-Acetyl-N-(5-(3,5-difluorophenoxy)-2-methoxyphenyl)-5-oxopyrrolidine-2-carboxamide]
5 | 50 to 300 | COc1ccc(Oc2cc(F)cc(F)c2)cc1NC(=O)C1CCC(=O)N1C (stereo not drawn) [Compound 78, N-(5-(3,5-Difluorophenoxy)-2-methoxyphenyl)-1-methyl-5-oxopyrrolidine-2-carboxamide]
6 | 301 to 2000 | COc1ccc(Oc2cc(F)ccc2F)cc1NC(=O)C1CCC(=O)N1 (stereo not drawn) [Compound 79, N-(5-(2,5-Difluorophenoxy)-2-methoxyphenyl)-5-oxopyrrolidine-2-carboxamide]
7 | 50 to 300 | O=C1CCC2(C(=O)Nc3cc(Oc4ccc(C(F)(F)F)cc4)cc4c3OCCO4)CCCN12 (stereo not drawn) [Compound 80, 3-Oxo-N-(7-(4-(trifluoromethyl)phenoxy)-2,3-dihydrobenzo[b][1,4]dioxin-5-yl)tetrahydro-1H-pyrrolizine-7a(5H)-carboxamide]
8 | < 50 | COc1ccc(Oc2ccc(C(F)(F)F)cc2)cc1NC(=O)C1CCC(=O)N1C(C)C (stereo not drawn) [Compound 81, 1-Isopropyl-N-(2-methoxy-5-(4-(trifluoromethyl)phenoxy)phenyl)-5-oxo-pyrrolidine-2-carboxamide]
9 | 50 to 300 | COc1ccc(Oc2ccc(F)c(F)c2)cc1NC(=O)C1CCC(=O)N1C(C)C (stereo not drawn) [Compound 82, N-(5-(3,4-Difluorophenoxy)-2-methoxyphenyl)-1-isopropyl-5-oxopyrrolidine-2-carboxamide]
10 | 50 to 300 | CN1C(=O)CCC1C(=O)Nc1cc(Oc2ccc(C(F)(F)F)cc2)ccc1-c1nnco1 (stereo not drawn) [Compound 83, N-(2-(1,3,4-Oxadiazol-2-yl)-5-(4-(trifluoromethyl)phenoxy)phenyl)-1-methyl-5-oxopyrrolidine-2-carboxamide]
11 | 301 to 2000 | CN1C(=O)CCC1C(=O)Nc1cc(Oc2cccc(C(F)(F)F)c2)ccc1-c1nnco1 (stereo not drawn) [Compound 84, N-(2-(1,3,4-Oxadiazol-2-yl)-5-(3-(trifluoromethyl)phenoxy)phenyl)-1-methyl-5-oxopyrrolidine-2-carboxamide]
12 | 301 to 2000 | CN1C(=O)CCC1C(=O)Nc1cc(Oc2ccc(F)c(F)c2)ccc1-c1ccn(C)n1 (stereo not drawn) [Compound 85, N-(5-(3,4-Difluorophenoxy)-2-(1-methyl-1H-pyrazol-3-yl)phenyl)-1-methyl-5-oxopyrrolidine-2-carboxamide]
13 | 50 to 300 | CN1C(=O)CCC1C(=O)Nc1cc(Oc2ccc(F)c(F)c2)ccc1-c1ccnn1C (stereo not drawn) [Compound 86, N-(5-(3,4-Difluorophenoxy)-2-(1-methyl-1H-pyrazol-5-yl)phenyl)-1-methyl-5-oxopyrrolidine-2-carboxamide]
14 | < 50 | COc1ccc(Oc2ccc(C(F)(F)F)cc2)cc1NC(=O)C1COC(=O)N1C (stereo not drawn) [Compound 87, N-(2-Methoxy-5-(4-(trifluoromethyl)phenoxy)phenyl)-3-methyl-2-oxo-oxazolidine-4-carboxamide]
15 | < 50 | COc1ccc(Oc2ccc(F)c(F)c2)cc1NC(=O)C1COC(=O)N1C (stereo not drawn) [Compound 88, N-(5-(3,4-Difluorophenoxy)-2-methoxyphenyl)-3-methyl-2-oxooxazolidine-4-carboxamide]
